According to PMC8838415, “Discovery of Novel Pleuromutilin Derivatives as Potent Antibacterial Agents for the Treatment of MRSA Infection” (Molecules, 2022):
Converted amounts (≈) assume the structure as drawn.

Legend:
[1] = tested on: methicillin-resistant S. aureus (ATCC 43300); experiment: MIC and MBC, broth dilution, MRSA ATCC 43300; type: cell-based; details: Staphylococcus aureus
Procedure: (§1) The synthesized pleuromutilin derivatives 8–30 were tested against four Gram-positive bacteria (MRSA ATCC 43300, S. aureus ATCC 29213 and two clinical strains of S. aureus (AD3 and 144) isolated from Guangdong Province). Tiamulin was used as the positive control in this experiment.
(§2) MIC values were tested following our previous work. The derivatives were dissolved in an aqueous solution of 2.5% tween-80 and 2.5% DMSO to make a solution with a concentration of 1000 µg/mL. The solution was diluted 12 times with MH broth to give a concentration range of 32–0.01 µg/mL. The bacteria (5 × 10^5 CFU/mL) were added in each well. For each compound concentration, three parallel experiments were set. The 96-well plate was incubated for 22–26 h at 37 °C. The MIC value was recorded as the minimal concentration that inhibits the visible growth of tested bacteria completely.
(§3) The MBC of these pleuromutilin derivatives were tested according to a previously reference. […] Then, the values of MBC were determined by laying 100 μL aliquots from the wells onto the MH agar plates without visible growth. The MH agar plate was cultured for a further 22–26 h at 37 °C.

50S ribosome = experiment: SPR interaction and affinity analysis; type: binding, S. aureus ATCC 43300; details: 4 °C; for Avg ka / Avg kd: 1:1 Langmuir binding; for Kd: KD = Kd/Ka
Procedure: S. aureus ATCC 43300 was used to prepare the 50S ribosomal subunit the same way as described previously. Cells were grown overnight in Brain Heart Infusion broth at 37 °C and harvested for 1.5 h at an OD600. Cells were washed with 10 mM Tris-HCl twice at pH = 7.5, and resuspended in 5 mL buffer A (20 mM HEPES-HCl pH = 7.5, 21 mM Mg(OAc)2, 100 mM NH4Cl, 1 mM DTT, 1 mM EDTA). Cells were broken by an ultrasound crusher. The lysate was centrifuged for 90 min at 20,000× g to clear cell debris.
The solution was layered on a sucrose cushion of 15 mL (10 mM Hepes-KOH pH 7.5, 25 mM Mg(OAc)2, 500 mM KCl, […], 1 mM DTT, 0.5 mM EDTA). Centrifugation was carried out for 15 h at 45,000 rpm using an ultracentrifuge Beckman (Beckman Coulter, Shanghai, China), Type 70Ti rotor. The crude ribosome pellet was resuspended in buffer E (10 mM Hepes-KOH pH 7.5, 10 mM Mg(OAc)2, 100 mM KCl, 1 mM DTT, 0.5 mM EDTA), then layered on 9 mL of 7–30% sucrose gradient and centrifuged in an ultracentrifuge Beckman, type SW40Ti rotor at 17,100 rpm for 15 h. The gradient was analyzed on the AKTA explorer system (Amersham, UK). The fractions corresponding to the 50S ribosomal subunit were collected and further subjected to precipitation by PEG 20,000. The 50S ribosomal subunit pellet was gently dissolved in 200 µL of storage buffer (10 mM HEPES-HCl pH = 7.5, 10 mM Mg(OAc)2, 15 mM KCl, 60 mM NH4Cl, 1 mM DTT) and stored at −80 °C.
SPR affinity analysis was performed on the bScreen LB 991 Label-free Microarray System (Berthold Technologies, Black Forest, Germany) at 4 °C and Biodot AD-1520 Array Printer (BIODOT Inc., Irvine, CA, USA) with a Photo-cross-linker SensorCHIP™. Concentrations of each compound were diluted to 100 μM with DMSO as the printing working solution for immobilization. A Biodot AD-1520 Array Printer (BIODOT Inc., CA, USA) was used to control the photo-cross-linker sensor chip and print samples. Each sample was printed four times. In order to check the chip quality and check whether the detection system works, DMSO was used as a system-negative control and rapamycin as a positive control. All positive control dots were divided into four groups and printed on the four corners of the sensor chip. The sensor chip was dried in vacuum after the array print and quickly transferred to a spectra radiator for a photo cross-linking reaction. The sensor chip was washed with C2H5OH, DMF and H2O in turn and evaporated in a N2 atmosphere for 15 min. Then, the Flowcell Cover were assembled.
The 50S ribosome was diluted separately to 200 nM, 400 nM, 800 nM, 1600 nM and 3200 nM with PBST (pH = 7.4, 0.1% Tween 20). Different concentrations of ribosome solutions were injected at a flow rate of 0.5 μL⋅s^−1 for 600 s at the associating stage at 4 °C, followed by PBST at a flow rate of 0.5⋅μL·s^−1 for 360 s at each dissociating stage. Then, the surface was regenerated with Glycine-HCl (pH = 2.0) at a flow rate of 2⋅μL·s^−1 for 300 s.
The raw data of the binding process of compounds and the 50S ribosome were recorded in real time. We compared the response unit (RU) of surface resonance to determine the different binding affinity between each sample dot. The process and analysis of association rate constants (Ka) and dissociation rate constants (Kd) and the equilibrium dissociation constant (KD, Kd/Ka) were performed using the data analysis software of the bScreen LB 991 Label-free Microarray System according to a single-site binding model (1:1 Langmuir binding) with mass transfer limitations for binding kinetics determination.

S. aureus (ATCC 29213) = experiment: MIC and MBC, broth dilution, S. aureus ATCC 29213; type: cell-based; details: Staphylococcus aureus, ATCC29213
Procedure: as §1, §2, §3

S. aureus (144) = experiment: MIC and MBC, broth dilution, S. aureus 144; type: cell-based; details: Staphylococcus aureus; S. aureus 144 (clinical strain)
Procedure: as §1, §2, §3

S. aureus (AD3) = experiment: MIC and MBC, broth dilution, S. aureus AD3; type: cell-based; details: Staphylococcus aureus; S. aureus AD3 (clinical strain)
Procedure: as §1, §2, §3

Structure (SMILES) | MBC [1] | MIC [1] | Avg ka (50S ribosome) | Avg kd (50S ribosome) | Kd (50S ribosome) | melting point | MBC (S. aureus (ATCC 29213)) | MIC (S. aureus (ATCC 29213)) | MBC (S. aureus (144)) | MIC (S. aureus (144)) | MBC (S. aureus (AD3)) | MIC (S. aureus (AD3))
C=C[C@]1(C)C[C@@H](OC(=O)CNCCc2cccs2)[C@]2(C)[C@H](C)CC[C@]3(CCC(=O)[C@H]32)[C@@H](C)[C@@H]1O [Compound 20, 22-(Thiophene-2-ethylamineyl)-22-deoxypleuromutilin] | 1 µg/mL (≈ 2.05 µM) | 0.5 µg/mL (≈ 1.03 µM) | 624 M⁻¹ s⁻¹ | 0.0197 s⁻¹ | 31.6 µM | 69 to 70 °C | 2 µg/mL (≈ 4.1 µM) | 2 µg/mL (≈ 4.1 µM) | 4 µg/mL (≈ 8.2 µM) | 2 µg/mL (≈ 4.1 µM) | 16 µg/mL (≈ 32.8 µM) | 4 µg/mL (≈ 8.2 µM)
C=C[C@]1(C)C[C@@H](OC(=O)CNCCCC)[C@]2(C)[C@H](C)CC[C@]3(CCC(=O)[C@H]32)[C@@H](C)[C@@H]1O [Compound 21, 22-Butylamineyl-22-deoxypleuromutilin] | 4 µg/mL (≈ 9.22 µM) | 2 µg/mL (≈ 4.61 µM) | 4.24 M⁻¹ s⁻¹ | 0.0231 s⁻¹ | 5440 µM | 74 to 75 °C | 4 µg/mL (≈ 9.22 µM) | 4 µg/mL (≈ 9.22 µM) | 8 µg/mL (≈ 18.4 µM) | 8 µg/mL (≈ 18.4 µM) | 8 µg/mL (≈ 18.4 µM) | 4 µg/mL (≈ 9.22 µM)
C=C[C@]1(C)C[C@@H](OC(=O)CNCCCCCCCC)[C@]2(C)[C@H](C)CC[C@]3(CCC(=O)[C@H]32)[C@@H](C)[C@@H]1O [Compound 22, 22-Octylamineyl-22-deoxypleuromutilin] | 32 µg/mL (≈ 65.3 µM) | 16 µg/mL (≈ 32.7 µM) | 114 M⁻¹ s⁻¹ | 0.00073 s⁻¹ | 6.41 µM | 76 to 77 °C | > 32 µg/mL | 16 µg/mL (≈ 32.7 µM) | > 32 µg/mL | 32 µg/mL (≈ 65.3 µM) | > 32 µg/mL | 32 µg/mL (≈ 65.3 µM)
C=C[C@]1(C)C[C@@H](OC(=O)CNCCCCCCCCCCCC)[C@]2(C)[C@H](C)CC[C@]3(CCC(=O)[C@H]32)[C@@H](C)[C@@H]1O [Compound 23, 22-Dodecylamineyl-22-deoxypleuromutilin] | 32 µg/mL (≈ 58.6 µM) | 32 µg/mL (≈ 58.6 µM) | 24100 M⁻¹ s⁻¹ | 0.0011 s⁻¹ | 0.0456 µM | 75 to 77 °C | > 32 µg/mL | 32 µg/mL (≈ 58.6 µM) | > 32 µg/mL | 32 µg/mL (≈ 58.6 µM) | > 32 µg/mL | 32 µg/mL (≈ 58.6 µM)
C=C[C@]1(C)C[C@@H](OC(=O)CNCCCCCCCCCCCCCCCC)[C@]2(C)[C@H](C)CC[C@]3(CCC(=O)[C@H]32)[C@@H](C)[C@@H]1O [Compound 24, 22-Hexadecylamineyl-22-deoxypleuromutilin] | > 32 µg/mL | 32 µg/mL (≈ 53.2 µM) |  | 0.0375 s⁻¹ | 993 µM | 76 to 79 °C | > 32 µg/mL | 32 µg/mL (≈ 53.2 µM) | > 32 µg/mL | 32 µg/mL (≈ 53.2 µM) | > 32 µg/mL | > 32 µg/mL
C=C[C@]1(C)C[C@@H](OC(=O)CNCCS(C)(=O)=O)[C@]2(C)[C@H](C)CC[C@]3(CCC(=O)[C@H]32)[C@@H](C)[C@@H]1O [Compound 25, 22-(2-(Methylsulfonyl)ethylamineyl)-22-deoxypleuromutilin] | 2 µg/mL (≈ 4.14 µM) | 1 µg/mL (≈ 2.07 µM) | 2.70 M⁻¹ s⁻¹ | 0.00833 s⁻¹ | 3080 µM | 183 to 186 °C | 2 µg/mL (≈ 4.14 µM) | 2 µg/mL (≈ 4.14 µM) | 8 µg/mL (≈ 16.5 µM) | 4 µg/mL (≈ 8.27 µM) | 4 µg/mL (≈ 8.27 µM) | 2 µg/mL (≈ 4.14 µM)
C=C[C@]1(C)C[C@@H](OC(=O)CNCCSC)[C@]2(C)[C@H](C)CC[C@]3(CCC(=O)[C@H]32)[C@@H](C)[C@@H]1O [Compound 26, 22-(2-(Methylthio)ethylamineyl)-22-deoxypleuromutilin] | 1 µg/mL (≈ 2.21 µM) | 1 µg/mL (≈ 2.21 µM) | 1.26 M⁻¹ s⁻¹ | 0.779 s⁻¹ |  | 153 to 155 °C | 2 µg/mL (≈ 4.43 µM) | 2 µg/mL (≈ 4.43 µM) | 4 µg/mL (≈ 8.86 µM) | 2 µg/mL (≈ 4.43 µM) | 4 µg/mL (≈ 8.86 µM) | 1 µg/mL (≈ 2.21 µM)
C=C[C@]1(C)C[C@@H](OC(=O)CNC23CC4CC(CC(C4)C2)C3)[C@]2(C)[C@H](C)CC[C@]3(CCC(=O)[C@H]32)[C@@H](C)[C@@H]1O [Compound 27, 22-Amantadineyl-22-deoxypleuromutilin] | 0.25 µg/mL (≈ 0.489 µM) | 0.25 µg/mL (≈ 0.489 µM) | 7.36 M⁻¹ s⁻¹ | 0.0215 s⁻¹ | 2920 µM | 105 to 109 °C | 1 µg/mL (≈ 1.95 µM) | 0.5 µg/mL (≈ 0.977 µM) | 8 µg/mL (≈ 15.6 µM) | 4 µg/mL (≈ 7.82 µM) | 4 µg/mL (≈ 7.82 µM) | 2 µg/mL (≈ 3.91 µM)
C=C[C@]1(C)C[C@@H](OC(=O)CNCCO)[C@]2(C)[C@H](C)CC[C@]3(CCC(=O)[C@H]32)[C@@H](C)[C@@H]1O [Compound 28, 22-Ethanolamine-22-deoxypleuromutilin] | 2 µg/mL (≈ 4.74 µM) | 1 µg/mL (≈ 2.37 µM) | 2730 M⁻¹ s⁻¹ | 0.0272 s⁻¹ | 9.96 µM | 91 to 94 °C | 8 µg/mL (≈ 19 µM) | 2 µg/mL (≈ 4.74 µM) | 4 µg/mL (≈ 9.49 µM) | 4 µg/mL (≈ 9.49 µM) | 8 µg/mL (≈ 19 µM) | 2 µg/mL (≈ 4.74 µM)
C=C[C@]1(C)C[C@@H](OC(=O)CN2CCOCC2)[C@]2(C)[C@H](C)CC[C@]3(CCC(=O)[C@H]32)[C@@H](C)[C@@H]1O [Compound 29, 22-Morpholine-22-deoxypleuromutilin] | 1 µg/mL (≈ 2.23 µM) | 1 µg/mL (≈ 2.23 µM) | 1.57 M⁻¹ s⁻¹ | 0.872 s⁻¹ |  | 157 to 159 °C | 2 µg/mL (≈ 4.47 µM) | 2 µg/mL (≈ 4.47 µM) | 4 µg/mL (≈ 8.94 µM) | 2 µg/mL (≈ 4.47 µM) | 8 µg/mL (≈ 17.9 µM) | 2 µg/mL (≈ 4.47 µM)
C=C[C@]1(C)C[C@@H](OC(=O)CN2CCSCC2)[C@]2(C)[C@H](C)CC[C@]3(CCC(=O)[C@H]32)[C@@H](C)[C@@H]1O [Compound 30, 22-Thiomorpholine-22-deoxypleuromutilin] | 2 µg/mL (≈ 4.31 µM) | 1 µg/mL (≈ 2.16 µM) |  | 0.00021 s⁻¹ | 7.77 µM | 82 to 83 °C | 2 µg/mL (≈ 4.31 µM) | 1 µg/mL (≈ 2.16 µM) | 4 µg/mL (≈ 8.63 µM) | 2 µg/mL (≈ 4.31 µM) | 4 µg/mL (≈ 8.63 µM) | 1 µg/mL (≈ 2.16 µM)
